Assay results from US20180153995A1, “USE OF ANTIMICROBIAL POLYMERS FOR RE-SENSITIZATION OF MICROORGANISMS UPON EMERGENCE OF RESISTANCE TO ANTI-MICROBIAL AGENTS” (Technion Research & Development Foundation Limited, priority 2008, published 2018).
Where two headings read alike, the source gives them in different places.

What was measured:
MRSA 15903 = experiment: microbe, parasite or virus in culture; type: cell-based, Staphylococcus aureus
Summary of the method: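 Values are FIC indexes, summing each agent's MIC in combination divided by its MIC alone, for MRSA 15903. Interpretation: <0.5 clear re-sensitization, 0.5 to 4 marginal or none, >4 antagonistic.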

S. aureus 15819 = experiment: Antibiotic MIC by microdilution with or without sub-MIC polymer; type: cell-based, Staphylococcus aureus; settings: S. aureus 15819
E. coli 14384 = experiment: as above; type: cell-based, Escherichia coli; settings: E. coli 14384
Description: (§1) MICs were determined by microdilution susceptibility testing in 96-well plates (by Nunc) using inocula of 10^5 bacteria per ml. Cell populations were evaluated by optical density measurements at 620 nm and were calibrated against a set of standards. Hundred (100) μl of a bacterial suspension were added to 100 μl of culture medium (control) or to 100 μl of culture medium containing various polymer concentrations in 2-fold serial dilutions. Inhibition of proliferation was determined by optical density measurements at 620 nm after an incubation period of 24 hours at 37° C.
(§2) 100 μl of a bacterial suspension were added to 100 μl of culture medium (control) or to 100 μl of culture medium containing various antibiotic and C14(9-ene)KKNC12KNH2 (SEQ ID NO: 5) concentrations in 2-fold serial dilutions. Inhibition of proliferation was determined by optical density measurements at 620 nm after an incubation period of 24 hours at 37° C.

E. coli 16327 = experiment: microbe, parasite or virus in culture
Description: as §1, §2

E. coli 14182 = experiment: Antibiotic MIC by microdilution with or without sub-MIC polymer; type: cell-based, Escherichia coli
S. maltophila 748 = experiment: as above; type: cell-based, Stenotrophomonas maltophila
[1] = test system: E. coli K-12 efflux knockout mutant; type: cell-based, Escherichia coli; settings: E. coli AG100A (efflux−)
Description: as §1

[2] = test system: E. coli K-12 resistant wild type; type: cell-based, Escherichia coli; settings: E. coli AG100 (w.t.)
S. aureus 43300 = experiment: Antibiotic MIC by microdilution with or without sub-MIC polymer; type: cell-based, Staphylococcus aureus
[3] = +¼ MIC (1.6 μM) C12(5-ene)KKNC12KNH2
[4] = +¼ MIC (1.6 μM) C12K(KNC12K)3NH2
[5] = +⅓ MIC (2.1 μM) C12(5-ene)KKNC12KNH2
[6] = +⅓ MIC (2.1 μM) C12K(KNC12K)3NH2
[7] = +½ MIC (3.12 μM) C14(9-ene)KKNC12KNH2
[8] = polymer at ½ of its MIC (Table 16)
[9] = the OAK at ½ of its MIC (Table 17)

For `CC[C@H]1OC(=O)[C@H](C)[C@@H](O[C@H]2C[C@@](C)(OC)[C@@H](O)[C@H](C)O2)[C@H](C)[C@@H](O[C@@H]2O[C@H](C)C[C@H](N(C)C)[C@H]2O)[C@](C)(O)C[C@@H](C)C(=O)[C@H](C)[C@@H](O)[C@]1(C)O` [Erythromycin, erythromycin], the MIC (MRSA 15903; MRSA 15903, +¼ polymer MIC (1.6 μM) NC12(KNC12K)2NH2) was 1 µg/mL, the MIC (MRSA 15903; MRSA 15903, +½ polymer MIC (3.1 μM) NC12(KNC12K)2NH2) was 0.016 µg/mL and the “MIC, ½ + MIC OAK” value (MRSA 15903; MRSA 15903, with C12K(KNC10K)3NH2 (SEQ ID NO: 10) at ½ of its MIC) was 0.13 to 0.25 µg/mL. For the same compound, the “MIC, ⅓ + MIC OAK” value (MRSA 15903; MRSA 15903, with C12K(KNC10K)3NH2 (SEQ ID NO: 10) at ⅓ of its MIC) was 0.5 µg/mL, the MIC (MRSA 15903; S. aureus CI-15903, +polymer (¼ MIC) C12(5-ene)KKNC12KNH2) was 0.5 µg/mL and the MIC (MRSA 15903; S. aureus CI-15903, +polymer (½ MIC) C12(5-ene)KKNC12KNH2) was 0.1 µg/mL. For the same compound, the MIC (MRSA 15903; S. aureus CI-15903, +polymer (⅓ MIC) C12(5-ene)KKNC12KNH2) was 0.1 µg/mL, the MIC (MRSA 15903; Staphylococcus aureus, MRSA, 24 h, MRSA 15903, antibiotic alone (Table 22), read-out: MIC, Alone) was 1 µg/mL and the MIC (MRSA 15903; Staphylococcus aureus, MRSA, 24 h, MRSA 15903, antibiotic alone, read-out: MIC) was 0.5 µg/mL. For the same compound, the MIC (MRSA 15903; Staphylococcus aureus, MRSA, 24 h, S. aureus CI-15903, alone, read-out: MIC) was 0.5 µg/mL, the “Antibiotic MIC” value (S. aureus 15819; [3]) was 0.25 µg/mL and the “Antibiotic MIC” value (S. aureus 15819; [4]) was 0.5 µg/mL. For the same compound, the “Antibiotic MIC” value (S. aureus 15819; +¼ MIC (1.6 μM) C12KKNC12KNH2) was 0.5 µg/mL, the “Antibiotic MIC” value (S. aureus 15819; +½ MIC (3.12 μM) C12(5-ene)KKNC12KNH2) was 0.25 µg/mL and the “Antibiotic MIC” value (S. aureus 15819; +½ MIC (3.12 μM) C12KKNC12KNH2) was 0.5 µg/mL. The “Antibiotic MIC” value (S. aureus 15819; [5]) was 0.25 µg/mL, the “Antibiotic MIC” value (S. aureus 15819; [6]) was 0.25 µg/mL and the “Antibiotic MIC” value (S. aureus 15819; +⅓ MIC (2.1 μM) C12KKNC12KNH2) was 0.5 µg/mL. For the same compound, the “Antibiotic MIC” value (S. aureus 15819; no polymer (None), Table 8) was 0.25 µg/mL, the “Antibiotic MIC” value (S. aureus 15819; no polymer (None), Table 11) was 0.5 µg/mL and the “Antibiotic MIC” value (S. aureus 15819; no polymer (None), Table 13) was 0.5 µg/mL. For the same compound, the “Antibiotic MIC” value (E. coli 14384; +¼ MIC C12K(NC8K)5NH2) was 32 to 64 µg/mL, the “Antibiotic MIC” value (E. coli 14384; [7]) was 32 µg/mL and the “Antibiotic MIC” value (E. coli 14384; +½ MIC C12K(NC8K)5NH2) was 4 to 8 µg/mL. The “Antibiotic MIC” value (E. coli 14384; +⅓ MIC C12K(NC8K)5NH2) was 32 µg/mL, the “Antibiotic MIC in presence of C12K(NC8K)7NH2 (SEQ ID NO: 4), +½ MIC” value (from here on “Antibiotic MIC … (SEQ ID NO: 4), +½ MIC”) (E. coli 14384; polymer at ½ of its MIC) was 8 to 16 µg/mL and the “Antibiotic MIC in presence of C12K(NC8K)7NH2 (SEQ ID NO: 4), +⅓ MIC” value (from here on “Antibiotic MIC … (SEQ ID NO: 4), +⅓ MIC”) (E. coli 14384; polymer at ⅓ of its MIC) was 16 to 32 µg/mL. The “MIC, ½ + MIC OAK” value (E. coli 16327; E. coli U16327, with C12K(KNC10K)3NH2 (SEQ ID NO: 10) at ½ of its MIC) was 4 to 8 µg/mL, the “MIC, ⅓ + MIC OAK” value (E. coli 16327; E. coli U16327, with C12K(KNC10K)3NH2 (SEQ ID NO: 10) at ⅓ of its MIC) was 8 µg/mL and the “Antibiotic MIC … (SEQ ID NO: 4), +½ MIC” value (E. coli 16327; E. coli U-16327, polymer at ½ of its MIC) was 32 µg/mL. For the same compound, the “Antibiotic MIC” value (E. coli 14182; +½ MIC C12K(NC8K)5NH2) was 8 to 16 µg/mL, the “Antibiotic MIC” value (E. coli 14182; +⅓ MIC C12K(NC8K)5NH2) was 32 to 64 µg/mL and the “Antibiotic MIC in presence of C12K(NC8K)7NH2 (SEQ ID NO: 4), +¼ MIC” value (E. coli 14182; polymer at ¼ of its MIC) was 32 µg/mL. For the same compound, the “Antibiotic MIC … (SEQ ID NO: 4), +½ MIC” value (E. coli 14182; polymer at ½ of its MIC) was 8 µg/mL, the “Antibiotic MIC … (SEQ ID NO: 4), +⅓ MIC” value (E. coli 14182; polymer at ⅓ of its MIC) was 16 µg/mL and the “Antibiotic MIC” value (S. maltophila 748; [4]) was 512 µg/mL. The “Antibiotic MIC” value (S. maltophila 748; [6]) was 512 µg/mL, the “Antibiotic MIC” value (S. maltophila 748; no polymer (None), Table 13) was 512 µg/mL and the “Antibiotic MIC, None” value ([1]; antibiotic alone (Table 16)) was 4 to 8 µg/mL. The “Antibiotic MIC, None” value ([1]; antibiotic alone (Table 17)) was 4 to 8 µg/mL, the “Antibiotic MIC in presence of C12K(NC8K)7NH2 (SEQ ID NO: 4), +¼ MIC” value ([1]; polymer at ¼ of its MIC (Table 16)) was 4 to 8 µg/mL and the “Antibiotic MIC … (SEQ ID NO: 4), +½ MIC” value [1, 8] was 2 µg/mL. For the same compound, the “Antibiotic MIC … (SEQ ID NO: 4), +⅓ MIC” value ([1]; polymer at ⅓ of its MIC (Table 16)) was 2 to 4 µg/mL, the “Antibiotic MIC in presence of the OAK, +¼ MIC” value ([1]; the OAK at ¼ of its MIC (Table 17)) was 4 to 8 µg/mL and the “Antibiotic MIC in presence of the OAK, +½ MIC” value [1, 9] was 1 to 2 µg/mL. The “Antibiotic MIC in presence of the OAK, +⅓ MIC” value ([1]; the OAK at ⅓ of its MIC (Table 17)) was 4 µg/mL, the “Antibiotic MIC … (SEQ ID NO: 4), +½ MIC” value [2, 8] was 8 to 16 µg/mL and the “Antibiotic MIC in presence of the OAK, +½ MIC” value [2, 9] was 16 µg/mL. The “Antibiotic MIC” value (S. aureus 43300; [3]) was 512 µg/mL, the “Antibiotic MIC” value (S. aureus 43300; +¼ MIC (1.6 μM) C12K(KNC12K)2NH2) was greater than 512 µg/mL and the “Antibiotic MIC” value (S. aureus 43300; +¼ MIC (1.6 μM) C12KKNC12KNH2) was greater than 512 µg/mL. The “Antibiotic MIC” value (S. aureus 43300; +¼ MIC (1.6 μM) C14(9-ene)KKNC12KNH2) was greater than 512 µg/mL, the “Antibiotic MIC” value (S. aureus 43300; +¼ MIC (1.6 μM) C16(9-ene)KKNC12KNH2) was 512 µg/mL and the “Antibiotic MIC” value (S. aureus 43300; +½ MIC (3.12 μM) C12K(KNC12K)2NH2) was greater than 512 µg/mL. The “Antibiotic MIC” value (S. aureus 43300; +½ MIC (3.12 μM) C12KKNC12KNH2) was greater than 512 µg/mL, the “Antibiotic MIC” value (S. aureus 43300; [7]) was greater than 512 µg/mL and the “Antibiotic MIC” value (S. aureus 43300; +½ MIC (3.12 μM) C16(9-ene)KKNC12KNH2) was 512 µg/mL. The “Antibiotic MIC” value (S. aureus 43300; [5]) was 512 µg/mL, the “Antibiotic MIC” value (S. aureus 43300; +⅓ MIC (2.1 μM) C12K(KNC12K)2NH2) was greater than 512 µg/mL and the “Antibiotic MIC” value (S. aureus 43300; +⅓ MIC (2.1 μM) C12KKNC12KNH2) was greater than 512 µg/mL. For the same compound, the “Antibiotic MIC” value (S. aureus 43300; +⅓ MIC (2.1 μM) C14(9-ene)KKNC12KNH2) was greater than 512 µg/mL, the “Antibiotic MIC” value (S. aureus 43300; +⅓ MIC (2.1 μM) C16(9-ene)KKNC12KNH2) was 512 µg/mL and the “Antibiotic MIC” value (S. aureus 43300; no polymer (None), Table 8) was 512 µg/mL. The “Antibiotic MIC” value (S. aureus 43300; no polymer (None), Table 9) was greater than 512 µg/mL, the “Antibiotic MIC” value (S. aureus 43300; no polymer (None), Table 10) was 512 µg/mL and the “Antibiotic MIC” value (S. aureus 43300; no polymer (None), Table 11) was greater than 512 µg/mL. For the same compound, the “Antibiotic MIC” value (S. aureus 43300; no polymer (None), Table 12) was greater than 512 µg/mL.
